Results on 15 compounds are retold here after US9505798B2, “Steroid compounds as RORyt modulators and uses thereof” (New York University, priority 2010, dated 2016).

Data set [1] has as its system human embryonic kidney 293t cell lines. Briefly: Toxicity on human embryonic kidney 293T cells. The following applies: human embryonic kidney 293t cell lines. As to the method:
(§1) The following representative compounds are tested for their RORγt inhibitory activity and toxicity.

A further data set addresses T1, mouse RORγt (Mus musculus, UniProt P51450).
T1 construct: mouse RORγt (amino acids 79 to the carboxyl terminal end); expressed in transfected cells
T1 sequence (P51450 79-495 isoform P51450-2): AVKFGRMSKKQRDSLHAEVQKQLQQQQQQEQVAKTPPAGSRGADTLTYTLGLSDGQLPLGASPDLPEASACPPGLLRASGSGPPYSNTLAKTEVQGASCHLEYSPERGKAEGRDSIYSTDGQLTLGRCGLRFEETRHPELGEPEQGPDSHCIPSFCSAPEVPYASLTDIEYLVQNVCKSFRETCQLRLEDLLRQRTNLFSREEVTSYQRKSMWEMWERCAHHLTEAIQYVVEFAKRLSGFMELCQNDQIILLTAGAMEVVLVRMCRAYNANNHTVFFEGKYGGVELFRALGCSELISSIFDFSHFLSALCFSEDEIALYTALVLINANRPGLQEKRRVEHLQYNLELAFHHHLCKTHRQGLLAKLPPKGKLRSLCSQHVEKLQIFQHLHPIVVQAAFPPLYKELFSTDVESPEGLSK
Briefly: Drosophila S2 cell RORγt luciferase reporter. The data set is classed as cell-based. The settings on record: for effect on RORγ transcriptional activity: S2 reporter system.
Excerpt: The Drosophila S2 cell line was originally purchased from Invitrogen and was maintained in Schneider's medium supplemented with 10% heat-inactivated bovine fetal calf serum and antibiotics (Invitrogen). […] The resulting chimeric gene was subcloned into the copper inducible pMT/V5-His A vector (Invitrogen). […] Coding sequences for firefly luciferase (Promega) were PCR amplified and subcloned into pUAST vector containing Gal4 binding enhancer sequences. Renilla luciferase construct under the polIII promoter was obtained from Dr. Dasgupta's laboratory (NYU medical center). In order to generate stable cell lines, cells were co-transfected with pMT-G4 DBD-RORγt, pMT-G4 DBD-RORα, pMT-G4 DBD-DHR3, or pMT-G4 DBDVP16 and pHygro plasmids (Invitrogen) and screened for resistant colonies in the presence of hygromycin (0.3 mg/mL). […] Using similar methods, stable clones with genomic integration of the luciferase reporters and other reporters were generated such as pMT-RORα_luc, pMT-DHR3_Luc, or pMT-VP16_luc.
as §1
Promega Dual-Glo system is widely used for HTS as the luciferase substrates. Cell culture medium was reduced to the final volume of 10 μl or less and 10 μl of Dual-glo and 10 μl of Stop-glo luciferase substrates were added in a sequencial manner (Promega). Firefly and Renilla luciferase activity was determined by measuring luminescence signals using an automated 384-well plate reader equipped with multiple stack units (such as the Analyst GT or Envision plate readers).
10,000 Drosophila stable S2 cells with genomic integration of the Cu2+-inducible G4 DBD-mouse RORγ construct were transfected with 5 ng of pUASTfirefly luciferase and 7 ng of Pol III-Renilla luciferase and dispensed into white bottom-tissue culture 384-well plates (Corning). […] The following morning, Stop-glo luciferase substrates (Promega) were used to measure luciferase activity.
The Drosophila S2 cell line was originally purchased from Invitrogen and was maintained in Schneider's Drosophila medium supplemented with 10% heat-inactivated bovine fetal calf serum and 1× antibiotic-antimycotic solution (Invitrogen). […] The resulting chimeric gene was subcloned into the copper inducible pMT/V5-His A vector (Invitrogen) and into the constitutive pAc vector. […] Coding sequences for firefly luciferase (Promega) were PCR amplified and subcloned into the pUAST vector containing five Gal4 binding enhancer sequences. The Renilla luciferase construct under a pol III promoter and the pAc vector were obtained from R. Dasgupta (NYU School of Medicine). To generate cell lines stably expressing various chimeric proteins upon copper addition, S2 cells were co-transfected with pMT plasmids encoding individual G4 DBD chimeric constructs and the pCoHygro plasmid (Invitrogen), before screening for resistant colonies in the presence of hygromycin (0.3 mg/mL). […] The human androgen receptor (hAR) expression plasmid pMK33-hAR and its reporter TAT3-Luc were obtained from M. Garabedian (NYU School of Medicine). […] R1881 (10 nM) and Dafachronic acid (10 μM) were used as ligands for hAR and Daf12. Upon treatment of cells with copper, in 384 well plates, there was specific increase in firefly luciferase activity versus normalized Renilla luciferase activity for all cell lines described above, validating the method for high-throughput screen.
Transfections of firefly and Renilla reporter constructs were performed using the Effectene kit from Qiagen according to the manufacturer's protocol with some modifications.
A general note: In a reporter assay the amount or activity of a reporter protein is the signal.

Another data set deals with T2, RORγt (Mus musculus, UniProt P51450).
T2 construct: expressed in transfected cells; host or cells: mouse naive CD4+ T cells, retroviral MIGr vector
It is filed as cell-based. The settings on record: mouse T cells. As to the method: Naive CD25^− CD62L^+CD44^low/int cells were sorted from RORγt^fl/fl mice and transduced with control-IRES-GFP (WT) or CRE-IRES-GFP (KO) retrovirus. […] FACS-sorted naive T cells were transduced with retroviral vectors encoding murine RORα-IRES-GFP or RORγt-IRES-GFP on Day 1 (16 h after TCR stimulation) and GFP expressing cells were gated for analysis on Day 5. […] Lymphocytes were isolated on day 21 after disease induction. The cells were stimulated for 4 h with PMA/Ionomycin and stained for surface markers and intracellular cytokines.
T cells were purified from lymph nodes and spleens of six to eight weeks old B6 mice (Taconic), by magnetically depleting B220^+ cells (autoMACS, Miltenyi), and then sorting CD8^−DAPI^−CD19^−CD4^+CD25^−CD62L^+CD44^low/Int naive T cells on a FACSAria (BD). […] For T cell polarization, 200 μl cells were seeded at 0.4×10^5 cells per mL in 96-well plates pre-coated with anti-CD3ε (5 μg/mL) and anti-CD28 (10 μg/mL). Cells were cultured for 4-5 days in Th17 (TGF-β (0.3 ng/mL), IL-6 (20 ng/mL), and anti-IFN-γ and anti-IL-4 (2 ng/mL)), Th1 (IL-12 (10 ng/mL), IL-2 (10 U/mL) and anti-IL-4 (2 ng/mL)), or Th2 (IL-4 (10 ng/mL), and anti-P35 and anti-IFN-γ 2 ng/mL)) conditions. For ectopic expression ROR proteins, native CD4^+ T cells were infected with retroviral MIGr-control, MIGr-RORα or MIGr-RORγ 24 hrs after activation, and cultured without exogenous cytokines or only with IL-6. At day 1, compounds dissolved in DMSO were added. For cytokine analysis, cells were incubated for 5 hours with phorbol 12-myristate 13-acetate (50 ng/mL; Sigma), ionomycin (500 ng/mL; Sigma) and GolgiStop (BD). Intracellular cytokine staining was performed according to the manufacturer's protocol (Cytofix/Cytoperm buffer set from BD) with alexa647-conjugated anti-IL-17a (eBioscience), and PE-conjugated anti-IFN-γ or anti-IL-4 (eBioscience). An LSR II (BD Biosciences) and FlowJo software (Tree Star) were used for flow cytometry and analysis. Dead cells were excluded using the Live/Dead fixable aqua dead cell stain kit (Invitrogen).

Data set [2] relates to experimental autoimmune encephalomyelitis (EAE). Briefly: Active EAE (MOG35-55/CFA) in C57BL/6 mice. The data set is classed as in vivo, mouse. The settings on record: IP daily from day 2.

As usually defined, the IC50 is the concentration needed to halve the response being measured.

Like-named read-outs stand apart in the source and are kept apart here.

T2 sequence (P51450 other isoform, or with tags, fused parts or gaps): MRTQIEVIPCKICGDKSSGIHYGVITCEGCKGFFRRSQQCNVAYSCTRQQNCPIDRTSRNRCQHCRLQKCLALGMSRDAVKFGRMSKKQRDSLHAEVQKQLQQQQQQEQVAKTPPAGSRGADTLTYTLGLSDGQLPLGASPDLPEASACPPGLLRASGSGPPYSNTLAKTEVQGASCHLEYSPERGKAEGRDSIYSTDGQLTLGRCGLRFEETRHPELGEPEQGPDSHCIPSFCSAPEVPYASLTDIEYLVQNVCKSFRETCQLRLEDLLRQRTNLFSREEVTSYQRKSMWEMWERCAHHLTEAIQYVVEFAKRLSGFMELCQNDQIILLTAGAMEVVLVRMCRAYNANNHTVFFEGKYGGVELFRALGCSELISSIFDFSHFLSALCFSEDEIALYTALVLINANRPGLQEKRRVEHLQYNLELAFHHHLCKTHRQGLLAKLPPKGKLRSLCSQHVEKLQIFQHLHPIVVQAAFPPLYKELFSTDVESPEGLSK

`CC1O[C@@H](OC2C(C)O[C@H](OC3C(C)O[C@@H](O[C@H]4CC[C@@]5(C)[C@H](CC[C@@H]6[C@@H]5C[C@@H](O)[C@]5(C)[C@@H](C7=CC(=O)OC7Cc7ccccc7O)CC[C@]65O)C4)C[C@H]3O)C[C@H]2O)C[C@@H](O)C1O` (stereo partly shown) [Compound 18, Digoxin-21-salicylyl]: the Human cell toxicity result in data set [1] was “xxx (cytotoxicity between 1-10 μM)”. Besides, the IC50 on mouse RORγt is below 1 µM.

For the compound `CC1O[C@@H](OC2C(C)O[C@H](OC3C(C)O[C@@H](O[C@H]4CC[C@@]5(C)[C@H](CC[C@@H]6[C@@H]5C[C@@H](O)[C@]5(C)[C@@H](C7CC(=O)OC7Cc7ccccc7O)CC[C@]65O)C4)C[C@H]3O)C[C@H]2O)C[C@@H](O)C1O` (stereo partly shown) [Compound 19], the Human cell toxicity entry in data set [1] is “xxx (cytotoxicity between 1-10 μM)”. On mouse RORγt, the IC50 is 1 to 10 µM.

`CC1O[C@@H](OC2C(C)O[C@H](OC3C(C)O[C@@H](O[C@H]4CC[C@@]5(C)[C@H](CC[C@@H]6[C@@H]5C[C@@H](O)[C@]5(C)[C@@H](C7CC(O)OC7Cc7ccccc7O)CC[C@]65O)C4)C[C@H]3O)C[C@H]2O)C[C@@H](O)C1O` (stereo partly shown) [Compound 20] registered a half-inhibitory concentration (IC50) at mouse RORγt above 20 µM.

In the case of `CC(=O)OC1C(C)O[C@@H](OC2C(C)O[C@H](OC3C(C)O[C@@H](O[C@H]4CC[C@@]5(C)[C@H](CC[C@@H]6[C@@H]5C[C@@H](OC(C)=O)[C@]5(C)[C@@H](C7=CC(=O)OC7)CC[C@]65O)C4)C[C@H]3OC(C)=O)C[C@H]2OC(C)=O)C[C@H]1OC(C)=O` (stereo partly shown) [Compound 21], on mouse RORγt, the IC50 was above 20 µM.

On to `COC(=O)C1CCC2(O)C3CCC4CC(OC5CC(O)C(OC6CC(O)C(OC7CC(O)C(O)C(C)O7)C(C)O6)C(C)O5)CCC4(C)C3CC(O)C12C` (stereo not shown) [Compound 24], for which the concentration for half-maximal inhibition (IC50) on mouse RORγt (S2 cell RORγt reporter, read-out: IC50) was 1 to 10 µM.

Consider `C[C@H]1O[C@@H](O[C@H]2[C@@H](O)C[C@H](O[C@H]3[C@@H](O)C[C@H](O[C@H]4CC[C@@]5(C)[C@H](CC[C@@H]6[C@@H]5CC[C@]5(C)[C@@H](C7=CC(=O)OC7)CC[C@]65O)C4)O[C@@H]3C)O[C@@H]2C)C[C@H](O)[C@@H]1O` [Digitoxin], for which the “effect on RORγ transcriptional activity” value on mouse RORγt was “selectively inhibited RORγ with similar IC50 values”. For the same compound, the “RORγt-dependent Th17 cell differentiation” value at RORγt was “selectively inhibited”.

As for `C[C@H]1O[C@@H](O[C@H]2CC[C@@]3(C)[C@H](CC[C@@H]4[C@@H]3C[C@@H](O)[C@]3(C)[C@@H](C5=CC(=O)OC5)CC[C@]43O)C2)C[C@H](O)[C@@H]1O[C@H]1C[C@H](O)[C@H](O[C@H]2C[C@H](O)[C@H](O[C@@H]3O[C@H](CO)[C@@H](O)[C@H](O)[C@H]3O)[C@@H](C)O2)[C@@H](C)O1` [deslanoside, Deslanoside], the “effect on RORγ transcriptional activity” value on mouse RORγt was “no significant effect”.

Consider `C[C@]12CC[C@H](O)C[C@H]1CC[C@@H]1[C@@H]2CC[C@]2(C)[C@@H](C3=CC(=O)OC3)CC[C@]12O` [digitoxigenin, Digitoxigenin], for which the “effect on RORγ transcriptional activity” value at mouse RORγt is reported as “no significant effect”.

As to `C[C@]12CC[C@H](O)C[C@H]1CC[C@@H]1[C@@H]2C[C@@H](O)[C@]2(C)[C@@H](C3=CC(=O)OC3)CC[C@]12O` [digoxigenin, Digoxigenin], the “EAE onset and severity of progression” value in data set [2] is on record as “no effect”.

With `C[C@H]1O[C@@H](O[C@H]2CC[C@]3(C=O)[C@H]4CC[C@]5(C)[C@@H](C6=CC(=O)OC6)CC[C@]5(O)[C@@H]4CC[C@]3(O)C2)C[C@H](O)[C@@H]1O[C@@H]1O[C@H](CO)[C@@H](O)[C@H](O)[C@H]1O` [erysimoside, Erysimoside], on mouse RORγt, the “effect on RORγ transcriptional activity” value is given as “no significant effect”.

For the compound `CO[C@H]1C[C@H](O[C@H]2CC[C@@]3(C)[C@H](CC[C@@H]4[C@@H]3CC[C@]3(C)[C@@H](C5=CC(=O)OC5)[C@@H](OC(C)=O)C[C@]43O)C2)O[C@@H](C)[C@@H]1O` [oleandrin, Oleandrin], the “effect on RORγ transcriptional activity” value on mouse RORγt is “no significant effect”.

`C[C@]12C[C@@H](O)[C@H]3[C@@H](CC[C@]4(O)C[C@@H](O)C[C@@H](O)[C@]34CO)[C@@]1(O)CC[C@@H]2C1=CC(=O)OC1` [ouabagenin, Ouabagenin]: the “effect on RORγ transcriptional activity” value at mouse RORγt was “no significant effect”.

Regarding `C[C@@H]1O[C@@H](O[C@H]2C[C@@H](O)[C@]3(CO)[C@H]4[C@H](O)C[C@]5(C)[C@@H](C6=CC(=O)OC6)CC[C@]5(O)[C@@H]4CC[C@]3(O)C2)[C@H](O)[C@H](O)[C@H]1O` [ouabain, Ouabain octahydrate], at mouse RORγt, the “effect on RORγ transcriptional activity” value is “no significant effect”.

Turning to `C[C@@H]1O[C@@H](O[C@@H]2C=C3CC[C@@H]4[C@H](CC[C@]5(C)[C@@H](c6ccc(=O)oc6)CC[C@]45O)[C@@]3(C)CC2)[C@H](O)[C@H](O)[C@H]1O` [proscillaridin A, Proscillaridin A], on mouse RORγt, the “effect on RORγ transcriptional activity” value is reported as “no significant effect”.

β-acetyldigoxin: the “effect on RORγ transcriptional activity” value on mouse RORγt is “selectively inhibited RORγ with similar IC50 values”. Moreover, the “RORγt-dependent Th17 cell differentiation” value at RORγt is recorded as “selectively inhibited”.
